In PubChem BioAssay (NCI):
Values joined by “and” are separate entries in the source; they are usually repeats but may differ in a detail not shown here. Equal values may be shown once.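 Briefly, cells in 96-well plates were exposed to five compound concentrations for 48 h, and endpoints were estimated by linear interpolation. GI50 is the concentration that inhibits growth by half. At the TGI there is no net growth.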

Key:
Test in all cases: DTP human tumour cell line panel, 48 h
OVCAR-8 ovarian = system: OVCAR-8 ovarian
MALME-3M melanoma = system: MALME-3M melanoma
A549 NSCLC = system: A549 NSCLC
NCI-H522 lung = system: NCI-H522 lung
IGROV1 ovarian = system: IGROV1 ovarian
SK-MEL-5 melanoma = system: SK-MEL-5 melanoma
SR leukemia = system: SR leukemia
SK-MEL-28 melanoma = system: SK-MEL-28 melanoma
MDA-N = system: MDA-N

Structure (SMILES)	GI50 (OVCAR-8 ovarian)	TGI (OVCAR-8 ovarian)	GI50 (MALME-3M melanoma)	TGI (MALME-3M melanoma)	GI50 (A549 NSCLC)	TGI (A549 NSCLC)	GI50 (NCI-H522 lung)	TGI (NCI-H522 lung)	GI50 (IGROV1 ovarian)	TGI (IGROV1 ovarian)	GI50 (SK-MEL-5 melanoma)	TGI (SK-MEL-5 melanoma)	GI50 (SR leukemia)	TGI (SR leukemia)	GI50 (SK-MEL-28 melanoma)	TGI (SK-MEL-28 melanoma)	TGI (MDA-N)	GI50 (MDA-N)
COC(=O)c1ccc(NC(=O)Nc2ccc3oc(=O)c4ccccc4c3c2)cc1	36.6 µM	> 100 µM	28.7 µM	73.7 µM	> 100 µM	> 100 µM	27.8 µM	> 100 µM	37.8 µM	> 100 µM	5.21 µM	17.3 µM	10.9 µM	> 100 µM	76 µM	> 100 µM		
COc1ccc2c(c1)C(=O)c1c-2c(Nc2ccc(C(C)=O)cc2)nc2ccccc12	18 µM	64.9 µM	49.6 µM	> 100 µM	37.2 µM	> 100 µM	30.3 µM	> 100 µM	22.9 µM	92.8 µM	48.3 µM	> 100 µM	55.7 µM	> 100 µM	52.2 µM	> 100 µM		
OCC1OC(OCC(O)C(O)C(O)C(/C=N/Nc2ccccc2)=N/Nc2ccccc2)C(O)C(O)C1O (configuration not stated)		> 100 µM		> 100 µM		> 100 µM				> 100 µM		> 100 µM		> 100 µM		> 100 µM	> 100 µM	
Cn1cc(C2=C(c3cccnc3)C(=O)NC2=O)c2ccccc21	> 25 µM	> 25 µM	> 25 µM	> 25 µM	> 25 µM	> 25 µM	> 25 µM	> 25 µM	24.3 µM	> 25 µM	> 12 µM	> 22.5 µM	15.5 µM	> 25 µM	> 25 µM	> 25 µM		
COc1ccc2c(c1)C(=O)C(=O)c1cc(O)c(OC)c(OC)c1-2	1.62 µM	1.6 µM and 2.98 µM	1.22 µM	1.53 µM and 2.46 µM	1.96 µM	12.1 µM and 3.89 µM	1.92 µM	1.74 µM and 3.55 µM	1.71 µM	1.56 µM and 3.08 µM	1.68 µM	1.53 µM and 3.07 µM		6.39 µM	1.88 µM	1.67 µM and 3.58 µM	1.4 µM and 2.55 µM	1.28 µM
O=C(O)CCC(=O)c1ccc2ccc3cccc4ccc1c2c34		> 100 µM		> 100 µM		> 100 µM		> 100 µM		> 100 µM		> 100 µM		> 100 µM		> 100 µM	> 100 µM	
C=CC(C)(O)/C=C/C=C(\C)C(CC1OC1(C)C)OC(=O)/C(C)=C\C (configuration not stated)		> 100 µM		> 100 µM		> 100 µM		> 100 µM		> 100 µM		> 100 µM		> 100 µM		> 100 µM	> 100 µM	
COc1ccc2nc3cc(Cl)ccc3c(N3CCN(c4ccnc(N5CCOCC5)n4)CC3)c2c1	43.5 µM	> 100 µM	> 100 µM	> 100 µM	> 100 µM	> 100 µM	1.81 µM	5.09 µM	> 100 µM	> 100 µM	> 100 µM	> 100 µM	3.29 µM	> 100 µM	58.4 µM	> 100 µM		
